In article PMC11048033, “Dual Anti-Inflammatory and Anticancer Activity of Novel 1,5-Diaryl Pyrazole Derivatives: Molecular Modeling, Synthesis, In Vitro Activity, and Dynamics Study” (Biomedicines, 2024):

How the values were obtained:
[1] = molecular target: BSA (bovine albumin serum) (Bos taurus, UniProt P02769); test: Protein (albumin) denaturation assay; conditions: maximum inhibition; compounds tested at 50-200 µg/mL, diclofenac 100 µg/mL
Procedure: Mizushima and Kobayashi’s technique was employed for the determination of in vitro anti-inflammatory activity by the protein denaturation method for the synthesized compounds. […] Then, a mixture of 500µL of 1% aqueous solution of BSA (bovine albumin serum) and 1.4 mL of phosphate buffer saline (PBS, pH 7.4) was added to 100 µL of varying concentrations of the synthesized compounds 50, 100, and 200 µg/mL. […] The mixtures are then incubated for 15 min at 37 °C and then heated for 10 min at 60 °C. The absorbance was measured at 660nm (SHIMADZU, UV-1800 Spectrophotometer) upon cooling. […] The entire experiment was done in triplicate, and the average was calculated. % inhibition of protein denaturation was calculated by: % inhibition=Absorbance of Control−Absorbance of Sample/Absorbance of Control×100
The anti-inflammatory capacity of the target compound was evaluated using the protein denaturation assay.

Human COX-2 = molecular target: T1, Human COX-2 (Homo sapiens, UniProt P35354); test: In vitro COX-2 enzymatic assay (Cayman COX (human) Inhibitor Screening Assay Kit); format: biochemical
T1 construct: purchased Cayman Chemicals 701230
T1 sequence (P35354 18-604): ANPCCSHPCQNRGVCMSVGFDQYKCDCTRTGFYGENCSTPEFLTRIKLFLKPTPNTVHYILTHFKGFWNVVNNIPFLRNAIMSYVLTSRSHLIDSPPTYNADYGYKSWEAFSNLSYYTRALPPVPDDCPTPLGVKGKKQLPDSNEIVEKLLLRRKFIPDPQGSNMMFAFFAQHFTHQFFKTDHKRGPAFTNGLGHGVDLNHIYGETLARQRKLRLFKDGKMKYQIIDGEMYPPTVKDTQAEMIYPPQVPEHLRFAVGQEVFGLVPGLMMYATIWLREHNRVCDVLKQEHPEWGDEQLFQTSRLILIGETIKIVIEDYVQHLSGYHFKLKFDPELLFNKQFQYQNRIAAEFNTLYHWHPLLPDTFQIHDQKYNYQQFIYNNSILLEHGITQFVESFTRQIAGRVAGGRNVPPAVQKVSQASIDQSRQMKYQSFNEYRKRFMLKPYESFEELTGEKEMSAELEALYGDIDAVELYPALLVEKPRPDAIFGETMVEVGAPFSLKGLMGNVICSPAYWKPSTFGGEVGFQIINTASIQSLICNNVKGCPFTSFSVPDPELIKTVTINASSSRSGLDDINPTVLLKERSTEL
Procedure: The ability of the compounds to inhibit COX -2 (IC50 values, µM) was determined by using a “COX (human) Inhibitor Screening Assay Kit” procured from Cayman Chemicals (catalog number 701230). With a slight modification in the method as defined in the reference, the COX-2 inhibition assay was performed. Using the percent conversion of arachidonic acid (AA) to PGH2, the enzyme activity was calculated. By enzyme immunoassay PGF2α, which is produced from PGH2 by reduction with stannous chloride, is calculated. The test compounds’ stock solutions are prepared by dissolving in a minimum amount of DMSO. Human COX-2 (10 µL) in the presence of 10 µL of heme was suspended in 0.1M Tris-HCl buffer (pH 8.0) which contains 2 mM phenol and 5 mM EDTA. This was added to various concentrations of test compounds and, on incubating the solutions at 37 °C for 5 min, 10 µL of AA solution were added. Later, the COX reaction was stopped by adding 1M HCl (50 µL) after 2 min. The intensity of the yellow color which is produced as the product of the enzymatic reaction is determined spectrophotometrically. The percent inhibition was calculated by comparing the compound treated to different control incubations. […] The determinations are done in triplicate and the IC50 (µM) was determined using the concentration–inhibition response curve.
During the initiation of the inflammatory process, the COX enzyme plays a vital role in the progression of inflammatory response. The inflammatory mediators that arise due to the action of COX lead to the chemoattraction of neutrophils, macrophages, eosinophils, etc. […] This was carried out with the help of a COX (human) inhibitor screening assay kit (Item no. 701230) from Cayman chemicals. […] A test substance concentration was considered to be inhibitive when it inhibited human COX-1 or COX-2 by 50%. The compound’s selectivity was measured by its selectivity index values, derived as IC50 (COX-1)/IC50 (COX-2).

[2] = tested on: A549 (human lung adenocarcinoma) cell line; test: MTT anticancer assay, A549; format: cell-based; conditions: for IC50 against A549: MTT
Procedure: (§1) The in vitro anticancer activity is determined by counting the viable cells that are stained with a vital dye. The MTT technique is an accurate measure of the activity of live cells using mitochondrial dehydrogenases. The target tumor cells A549 (human lung adenocarcinoma) and HEPG2 (human liver) cell lines are procured from the “National Centre for Cell Science” (NCCS, Pune). The sources of reagents like Trypsin, DMEM, Pen strip, and FBS are procured from Himedia. […] The culture medium was prepared, and the MTT assay was performed as per the general procedure described by Mosmann T. et al., [30] and the % viability of the cells was determined.
(§2) The target compounds tested for in vitro COX-2 were further checked for in vitro anti-cancer activity against A549 (lung cancer) and HepG2 (liver cancer) cell lines using MTT growth inhibition assay. The compounds were tested for cytotoxicity against both the cell lines at concentrations of 6.25, 12.5, 25, 50, and 100 µg/mL. […] Using the graph where % cell viability is plotted versus concentration, the IC50 values are determined with the help of the dose–response regression equation.

[3] = tested on: HEPG2 (human liver) cell line; test: MTT anticancer assay, HepG2; format: cell-based; conditions: for IC50 against HepG2: MTT
Procedure: as §1, §2

BSA (bovine albumin serum), sequence (P02769 25-607): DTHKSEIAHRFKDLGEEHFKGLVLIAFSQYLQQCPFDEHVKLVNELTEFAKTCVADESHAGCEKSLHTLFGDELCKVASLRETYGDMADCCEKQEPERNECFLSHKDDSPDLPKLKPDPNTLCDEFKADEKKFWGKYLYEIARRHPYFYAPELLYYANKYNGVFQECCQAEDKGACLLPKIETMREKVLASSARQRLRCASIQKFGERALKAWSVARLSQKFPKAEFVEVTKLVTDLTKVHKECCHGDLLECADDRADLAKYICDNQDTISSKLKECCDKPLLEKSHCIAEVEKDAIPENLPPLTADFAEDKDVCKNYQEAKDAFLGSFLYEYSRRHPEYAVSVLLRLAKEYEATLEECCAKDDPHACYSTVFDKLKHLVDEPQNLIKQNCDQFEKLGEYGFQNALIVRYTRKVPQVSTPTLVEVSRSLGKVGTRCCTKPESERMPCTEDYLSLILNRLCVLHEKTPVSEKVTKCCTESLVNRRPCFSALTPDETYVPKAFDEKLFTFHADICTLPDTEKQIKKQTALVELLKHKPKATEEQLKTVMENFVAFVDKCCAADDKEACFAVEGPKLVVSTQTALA

## NS(=O)(=O)c1ccc(-n2nc(C(=O)NN=Cc3cccc(Oc4ccccc4)c3)cc2-c2ccc(Cl)cc2)cc1 [Compound T3, 4-(5-(4-chlorophenyl)-3-(2-(3-phenoxybenzylidene) hydrazine-1-carbonyl)-1H-pyrazol-1-yl) benzenesulfonamide]
[1]
  % inhibition of albumin denaturation: 63.32%
Human COX-2; 0.781 μg/ml
  % COX-2 Inhibition: 55.34 ± 1.03%
Human COX-2; 1.562 μg/ml
  % COX-2 Inhibition: 61.82 ± 1.20%
Human COX-2; 3.125 μg/ml
  % COX-2 Inhibition: 66.67 ± 0.96%
Human COX-2; 6.25 μg/ml
  % COX-2 Inhibition: 71.48 ± 0.78%
Human COX-2; 12.5 μg/ml
  % COX-2 Inhibition: 73.95 ± 0.27%
Human COX-2; 25 μg/ml
  % COX-2 Inhibition: 76.28 ± 0.70%
Human COX-2; 50 μg/ml
  % COX-2 Inhibition: 78.94 ± 0.72%
Human COX-2; 100 μg/ml
  % COX-2 Inhibition: 81.06 ± 0.47%
Human COX-2; 250 μg/ml
  % COX-2 Inhibition: 85.38 ± 0.73%
[2]; A549
  anti-cancer activity against A549 cell lines (in words): active
  IC50 against A549: 40.14 µM
[2]; A549, 6.25 µg/ml
  % cell viability: 95.77%
[2]; A549, 12.5 µg/ml
  % cell viability: 86.16%
[2]; A549, 25 µg/ml
  % cell viability: 60.37%
[2]; A549, 50 µg/ml
  % cell viability: 46.16%
[2]; A549, 100 µg/ml
  % cell viability: 24.18%
[2]; A549 cell lines
  concentration at which compound was effective (from % inhibitory values): 50 µg/mL
[3]; HepG2, 6.25 µg/ml
  % cell viability: 84.39%
[3]; HepG2, 12.5 µg/ml
  % cell viability: 84.40%
[3]; HepG2, 25 µg/ml
  % cell viability: 73.65%
[3]; HepG2, 50 µg/ml
  % cell viability: 73.62%
[3]; HepG2, 100 µg/ml
  % cell viability: 54.76%
[3]
  IC50 against HepG2: > 100 µM

## Cc1cc(C=NNC(=O)c2cc(-c3ccc(Br)cc3)n(-c3ccc(S(N)(=O)=O)cc3)n2)cc(C)c1OCc1ccccc1 [Compound T5, 4-(3-(2-(4-(benzyloxy)-3,5-dimethylbenzylidene) hydrazine-1-carbonyl)-5-(4-bromophenyl)-1H-pyrazol-1-yl) benzenesulfonamide]
[1]
  % inhibition of albumin denaturation: 70.87%
Human COX-2
  Selectivity Index: 7.16
Human COX-2; 0.781 μg/ml
  % COX-2 Inhibition: 65.66 ± 1.05%
Human COX-2; 1.562 μg/ml
  % COX-2 Inhibition: 72.1 ± 6.01%
Human COX-2; 3.125 μg/ml
  % COX-2 Inhibition: 78.03 ± 2.98%
Human COX-2; 6.25 μg/ml
  % COX-2 Inhibition: 84.28 ± 2.50%
Human COX-2; 12.5 μg/ml
  % COX-2 Inhibition: 85.04 ± 2.38%
Human COX-2; 25 μg/ml
  % COX-2 Inhibition: 86.71 ± 0.50%
Human COX-2; 50 μg/ml
  % COX-2 Inhibition: 87.64 ± 1.43%
Human COX-2; 100 μg/ml
  % COX-2 Inhibition: 88.64 ± 0.86%
Human COX-2; 250 μg/ml
  % COX-2 Inhibition: 89.35 ± 0.86%
[2]; A549, 6.25 µg/ml
  % cell viability: 97.15%
[2]; A549, 12.5 µg/ml
  % cell viability: 92.32%
[2]; A549, 25 µg/ml
  % cell viability: 72.36%
[2]; A549, 50 µg/ml
  % cell viability: 62.43%
[2]; A549, 100 µg/ml
  % cell viability: 30.52%
[2]; A549
  IC50 against A549: 60.95 µM
[3]; HepG2, 6.25 µg/ml
  % cell viability: 84.40%
[3]; HepG2, 12.5 µg/ml
  % cell viability: 73.66%
[3]; HepG2, 25 µg/ml
  % cell viability: 73.42%
[3]; HepG2, 50 µg/ml
  % cell viability: 54.76%
[3]; HepG2, 100 µg/ml
  % cell viability: 39.32%
[3]; HepG2 cell lines
  concentration at which compound was effective (from % inhibitory values): 50 µg/mL
[3]
  IC50 against HepG2: 66.93 µM
